Experimental data taken from patent publication US20250289793A1, “MACROCYCLIC INHIBITORS OF ATP CITRATE LYASE” (Esperion Therapeutics, Inc., priority 2022, published 2025).

Columns and labels:
[1] = molecular target: T1, ACLY (Homo sapiens (Human), UniProt P53396); assay: Human ACLY (hACLY) RF/MS activity assay; format: biochemical; details: 1 nM hACLY; 30 min pre-incubation; 15 μM Coenzyme A, 50 μM ATP, 50 μM citrate; CoA to Acetyl-CoA by RF/MS; read-out: RFMS IC50 GMean
Experimental: Compounds of the disclosure were evaluated for their efficacy in inhibiting hACLY using rapid fire mass spectrometry (RF/MS).
The final reaction volume for each compound was 20 μl and consisted of buffer (50 mM Hepes pH 8.0, 10 mM MgCl2, 0.003% BSA, 0.01% Brij35, 50 mM NaCl, 4 mM DTT) and 1 nM hACLY, EV12992, PP6692) using Greiner, 384 well small volume, deep well plates (Cat #784201). A two-fold dilution series with a top concentration of 10 μM was used to record a concentration response curve. Both the substrate (CoA) and product (Acetyl-CoA) were quantified, and given a ratio. […] The final DMSO-concentration was 1% (v/v). Compounds were pre-incubated for 30 min with the buffered enzyme solution at RT (20° C.), and substrate solution was added (final concentrations: 15 μM Coenzyme A, 50 μM ATP and 50 μM citrate) to initiate the enzyme reaction. The enzyme reaction was incubated for additional 30 min at RT. The reaction was quenched upon addition of 40 μl of 5% Formic acid in H2O and centrifuged (4350 rpm at 20° C. for 10 min).
Product formation was quantified using a RF/MS-based method based on mass change of CoA (substrate) to Acetyl-CoA (product).

[2] = molecular target: T1, ACLY; assay: InCell Pulse assay (permeate HEK293 cells, bind to and stabilize ACLY); format: cell-based; details: HEK293 cells transfected with pICP-ACLY(FL)-ePL; 1 hour at 37° C., 55° C. heat pulse 10 minutes; read-out: InCell Pulse IC50 GMean
Experimental: HEK293 cells transfected for 24 hours with pICP-ACLY(FL)-ePL (3 μg DNA per T25 flask) using FuGene HD (Promega Corp.) were harvested and cryopreserved. On the day of the assay, the frozen transfected cells were thawed at 37° C., and the storage medium (DMEM with 2 mM L-Glutamine, 10% FBS and a final concentration of DMSO 10%) was exchanged with assay medium (OptiMEM; Gibco™, ThermoFischer Scientific). Compounds were 3-fold serially diluted in DMSO over 11-point concentration range. 100 nL of the corresponding dilutions were spotted into the assay plate (Greiner AG; 384 Well, PP, Small Volume, Deep Well, Natural, cat. no. 784201) followed by the addition of 20 μL of cell suspension adjusted with assay medium to 7.5E4 cells/mL. Subsequently, the plates were sealed and incubated for 1 hour at 37° C. Afterwards, the plates were fixed upside down in a rack and incubated in a 55° C. water bath for 10 minutes. Following this heat pulse step, plates were allowed to reach room temperature for 10 minutes and centrifuged for a few seconds at 1000 rpm and room temperature. 25 μL EA detection solution (working solution: 0.0167× InCell EA Reagent, 0.15× InCell Dilution Buffer, 0.167× InCell Lysis Buffer; 0.667× InCell Substrate Reagent; InCell Hunter Detection kit; Eurofins DiscoverX; cat. no. 96-0079) were added to each well. Afterwards, 42 μL were transferred from the assay plate to the detection plate (Corning Inc., 384-well Low Flange Black Flat Bottom Polystyrene NBS Microplate, cat. no. 3575), followed by an incubation for 1 hour at room temperature, a centrifugation step for 1 minute at 1000 rpm and the detection of the luminescence signal using an EnVision microplate reader (Perkin Elmer Inc.). Concentration-response curve-fitting and IC50 determination was performed using Evotec's in-house evaluation software APlus with a four-parameter non-linear regression fit model. Data was normalized to 0.5% (final concentration) DMSO as low/negative control and 1 μM (final concentration) NDI-094311 as high/positive control.

T1 sequence (P53396 whole entry): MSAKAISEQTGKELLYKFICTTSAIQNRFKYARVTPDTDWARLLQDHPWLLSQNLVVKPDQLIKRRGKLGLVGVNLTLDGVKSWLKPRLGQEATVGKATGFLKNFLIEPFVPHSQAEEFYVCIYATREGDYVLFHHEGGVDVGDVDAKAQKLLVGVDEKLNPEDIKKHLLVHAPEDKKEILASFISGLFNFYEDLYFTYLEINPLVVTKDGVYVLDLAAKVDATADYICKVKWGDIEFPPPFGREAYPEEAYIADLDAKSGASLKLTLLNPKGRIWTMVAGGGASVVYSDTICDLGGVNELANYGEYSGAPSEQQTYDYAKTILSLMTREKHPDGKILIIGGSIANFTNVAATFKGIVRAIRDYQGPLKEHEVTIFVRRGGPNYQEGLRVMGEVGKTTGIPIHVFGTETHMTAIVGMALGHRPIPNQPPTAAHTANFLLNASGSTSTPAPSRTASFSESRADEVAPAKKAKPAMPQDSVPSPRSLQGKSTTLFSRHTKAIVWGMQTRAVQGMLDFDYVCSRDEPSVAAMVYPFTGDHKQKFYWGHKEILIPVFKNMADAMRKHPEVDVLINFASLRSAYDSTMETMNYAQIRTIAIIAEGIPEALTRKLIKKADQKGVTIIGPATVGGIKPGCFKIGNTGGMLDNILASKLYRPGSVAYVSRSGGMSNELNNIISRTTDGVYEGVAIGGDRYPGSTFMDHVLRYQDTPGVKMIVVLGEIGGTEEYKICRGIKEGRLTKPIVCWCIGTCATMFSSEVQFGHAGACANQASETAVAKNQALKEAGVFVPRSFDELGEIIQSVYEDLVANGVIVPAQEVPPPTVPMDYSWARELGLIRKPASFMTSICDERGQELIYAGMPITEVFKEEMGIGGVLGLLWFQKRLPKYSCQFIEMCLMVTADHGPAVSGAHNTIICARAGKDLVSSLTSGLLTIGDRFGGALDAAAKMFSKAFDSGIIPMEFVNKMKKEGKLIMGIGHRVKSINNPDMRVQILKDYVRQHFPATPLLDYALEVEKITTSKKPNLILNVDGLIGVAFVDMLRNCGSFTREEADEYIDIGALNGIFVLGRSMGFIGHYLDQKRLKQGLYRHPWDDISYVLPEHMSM

SMILES | IC50 [1] | IC50 [2]
CC1CCOC(=O)c2cc(Cl)c(O)c(c2)S(=O)(=O)Nc2cc(c(F)cc2F)-c2ccccc21 (stereo not drawn) [Compound 43, 15-chloro-21,23-difluoro-16-hydroxy-8-methyl-18,18-dioxo-11-oxa-18λ6-thia-19-azatetracyclo[18.3.1.113,17.02,7]pentacosa-1(23),2(7),3,5,13,15,17(25),20(24),21-nonaen-12-one] | 20 to 100 nM | 300 to 1000 nM
COc1cc(F)c2cc1-c1ccccc1OCCOC(=O)c1cc(Cl)c(O)c(c1)S(=O)(=O)N2 [Compound 47, 15-chloro-21-fluoro-16-hydroxy-23-methoxy-18,18-dioxo-8,11-dioxa-18λ6-thia-19-azatetracyclo[18.3.1.113,17.02,7]pentacosa-1(23),2(7),3,5,13(25),14,16,20(24),21-nonaen-12-one] | 20 to 100 nM | < 300 nM
Cc1cccc2c1-c1cc(c(F)cc1F)NS(=O)(=O)c1cc(cc(Cl)c1O)C(=O)OCCO2 [Compound 49, 15-chloro-21,23-difluoro-16-hydroxy-3-methyl-18,18-dioxo-8,11-dioxa-18λ6-thia-19-azatetracyclo[18.3.1.113,17.02,7]pentacosa-1(23),2(7),3,5,13(25),14,16,20(24),21-nonaen-12-one] | ≥ 10000 nM | ≥ 50000 nM
O=C1OCCOc2ccccc2-c2ccc(F)c(c2F)NS(=O)(=O)c2cc1cc(Cl)c2O [Compound 51, 15-chloro-21,24-difluoro-16-hydroxy-18,18-dioxo-8,11-dioxa-18λ6-thia-19-azatetracyclo[18.3.1.113,17.02,7]pentacosa-1(23),2(7),3,5,13(25),14,16,20(24),21-nonaen-12-one] | 100 to 10000 nM | ≥ 50000 nM
O=C1OCCOc2cc3cn[nH]c3cc2-c2cc(c(F)cc2F)NS(=O)(=O)c2cc1cc(Cl)c2O [Compound 53, 18-chloro-24,26-difluoro-19-hydroxy-21,21-dioxo-11,14-dioxa-21λ6-thia-5,6,22-triazapentacyclo[21.3.1.116,20.02,10.04,8]octacosa-1(27),2(10),3,6,8,16(28),17,19,23,25-decaen-15-one] | 100 to 10000 nM | ≥ 50000 nM
O=C1OCCOc2ccccc2-c2ccc(C3CC3)c(c2)NS(=O)(=O)c2cc1cc(Cl)c2O [Compound 57, 15-chloro-21-cyclopropyl-16-hydroxy-18,18-dioxo-8,11-dioxa-18λ6-thia-19-azatetracyclo[18.3.1.113,17.02,7]pentacosa-1(23),2(7),3,5,13(25),14,16,20(24),21-nonaen-12-one] | 20 to 100 nM | 1000 to 50000 nM
O=C1OCCOc2ccccc2-c2cc(c(F)cc2F)NS(=O)(=O)c2cc1ccc2C(F)F [Compound 60, 16-(difluoromethyl)-21,23-difluoro-18,18-dioxo-8,11-dioxa-18λ6-thia-19-azatetracyclo[18.3.1.113,17.02,7]pentacosa-1(23),2(7),3,5,13(25),14,16,20(24),21-nonaen-12-one] | ≥ 10000 nM | ≥ 50000 nM
O=C1OCCOc2ccccc2-c2cc(c(F)cc2F)NS(=O)(=O)c2cc1cc(Cl)n2 [Compound 61, 15-chloro-21,23-difluoro-18,18-dioxo-8,11-dioxa-18λ6-thia-16,19-diazatetracyclo[18.3.1.113,17.02,7]pentacosa-1(24),2,4,6,13,15,17(25),20,22-nonaen-12-one] | ≥ 10000 nM | ≥ 50000 nM
Cc1cc2cc(n1)S(=O)(=O)Nc1cc(c(F)cc1F)-c1ccccc1OCCOC2=O [Compound 62, 21,23-difluoro-15-methyl-18,18-dioxo-8,11-dioxa-18λ6-thia-16,19-diazatetracyclo[18.3.1.113,17.02,7]pentacosa-1(24),2,4,6,13,15,17(25),20,22-nonaen-12-one] | ≥ 10000 nM | ≥ 50000 nM
Nc1cc2cc(n1)S(=O)(=O)Nc1cc(c(F)cc1F)-c1ccccc1OCCOC2=O [Compound 63, 15-amino-21,23-difluoro-18,18-dioxo-8,11-dioxa-18λ6-thia-16,19-diazatetracyclo[18.3.1.113,17.02,7]pentacosa-1(23),2(7),3,5,13,15,17(25),20(24),21-nonaen-12-one] | ≥ 10000 nM | ≥ 50000 nM

More lines, now with the values ahead:

IC50 [1] | IC50 [2] | SMILES
20 to 100 nM | < 300 nM | O=C1OCCCc2ccccc2-c2ccc(F)c(c2)NS(=O)(=O)c2cc1cc(Cl)c2O [Compound 42, 15-chloro-21-fluoro-16-hydroxy-18,18-dioxo-11-oxa-18λ6-thia-19-azatetracyclo[18.3.1.113,17.02,7]pentacosa-1(23),2(7),3,5,13,15,17(25),20(24),21-nonaen-12-one]
< 20 nM | < 300 nM | O=C1OCCOc2ccc(F)cc2-c2ccc(F)c(c2)NS(=O)(=O)c2cc1cc(Cl)c2O [Compound 46, 15-chloro-4,21-difluoro-16-hydroxy-18,18-dioxo-8,11-dioxa-18λ6-thia-19-azatetracyclo[18.3.1.113,17.02,7]pentacosa-1(23),2(7),3,5,13,15,17(25),20(24),21-nonaen-12-one]
< 20 nM | < 300 nM | O=C1OCCOc2cc(F)ccc2-c2ccc(F)c(c2)NS(=O)(=O)c2cc1cc(Cl)c2O [Compound 48, 15-chloro-5,21-difluoro-16-hydroxy-18,18-dioxo-8,11-dioxa-18λ6-thia-19-azatetracyclo[18.3.1.113,17.02,7]pentacosa-1(23),2(7),3,5,13(25),14,16,20(24),21-nonaen-12-one]
< 20 nM | < 300 nM | Cc1cc(F)c2cc1-c1ccccc1OCCOC(=O)c1cc(Cl)c(O)c(c1)S(=O)(=O)N2 [Compound 50, 15-chloro-21-fluoro-16-hydroxy-23-methyl-18,18-dioxo-8,11-dioxa-18λ6-thia-19-azatetracyclo[18.3.1.113,17.02,7]pentacosa-1(23),2(7),3,5,13(25),14,16,20(24),21-nonaen-12-one]
20 to 100 nM | 300 to 1000 nM | O=C1OCCOc2ccc(Cl)cc2-c2ccc(F)c(c2)NS(=O)(=O)c2cc1cc(Cl)c2O [Compound 52, 4,15-dichloro-21-fluoro-16-hydroxy-18,18-dioxo-8,11-dioxa-18λ6-thia-19-azatetracyclo[18.3.1.113,17.02,7]pentacosa-1(23),2(7),3,5,13,15,17(25),20(24),21-nonaen-12-one]
< 20 nM | < 300 nM | O=C1OCCOc2ccccc2-c2cc(F)c(F)c(c2)NS(=O)(=O)c2cc1cc(Cl)c2O [Compound 54, 15-chloro-21,22-difluoro-16-hydroxy-18,18-dioxo-8,11-dioxa-18λ6-thia-19-azatetracyclo[18.3.1.113,17.02,7]pentacosa-1(23),2(7),3,5,13(25),14,16,20(24),21-nonaen-12-one]
< 20 nM | 300 to 1000 nM | O=C1OCCOc2ccccc2-c2ccc(OC(F)F)c(c2)NS(=O)(=O)c2cc1cc(Cl)c2O [Compound 55, 15-chloro-21-(difluoromethoxy)-16-hydroxy-18,18-dioxo-8,11-dioxa-18λ6-thia-19-azatetracyclo[18.3.1.113,17.02,7]pentacosa-1(23),2(7),3,5,13(25),14,16,20(24),21-nonaen-12-one]
20 to 100 nM | < 300 nM | O=C1OCCOc2ccccc2-c2ccc(C(F)(F)F)c(c2)NS(=O)(=O)c2cc1cc(Cl)c2O [Compound 58, 15-chloro-16-hydroxy-18,18-dioxo-21-(trifluoromethyl)-8,11-dioxa-18λ6-thia-19-azatetracyclo[18.3.1.113,17.02,7]pentacosa-1(24),2(7),3,5,13(25),14,16,20,22-nonaen-12-one]
